Test results from ChEMBL document CHEMBL5338785, “Development of Aromatic-Linked Diamino Acid Antimicrobial Peptide Mimics with Low Hemolytic Toxicity and Excellent Activity against Methicillin-Resistant Staphylococcus aureus (MRSA)” (J Med Chem, 2023).
Calls of active or inactive are those of the source. The rule behind the calls is not given here.

Experiments:
[1] = test system: Staphylococcus aureus; assay: Antibacterial activity against methicillin-resistant Staphylococcus aureus assessed as bacterial growth inhibition; assay type: functional
[2] = test system: Enterococcus faecalis; assay: Antibacterial activity against Enterococcus faecalis assessed as bacterial growth inhibition; assay type: functional
[3] = test system: Escherichia coli; assay: Antibacterial activity against Escherichia coli assessed as bacterial growth inhibition; assay type: functional
[4] = test system: Stenotrophomonas maltophilia; assay: Antibacterial activity against Stenotrophomonas maltophilia assessed as bacterial growth inhibition; assay type: functional
[5] = Hemolytic activity in mammalian RBC assessed as hemolysis at 320 ug/ml incubated for 1 hr by microplate reader analysis; assay type: toxicity, cell-based, Erythrocyte; conditions: mammalia, mammalian red blood cells, at 320 µg/mL, read-out: Activity
[6] = test system: Staphylococcus aureus; assay: Antibacterial activity against methicillin-resistant Staphylococcus aureus assessed as bacterial growth inhibition incubated for 18 hrs by CLSI protocol based Mueller-Hinton broth assay; assay type: functional; conditions: Staphylococcus aureus, read-out: MIC
[7] = test system: Enterococcus faecalis; assay: Antibacterial activity against Enterococcus faecalis assessed as bacterial growth inhibition incubated for 18 hrs by CLSI protocol based Mueller-Hinton broth assay; assay type: functional; conditions: Enterococcus faecalis, 18 h, read-out: MIC
[8] = test system: Escherichia coli; assay: Antibacterial activity against Escherichia coli assessed as bacterial growth inhibition incubated for 18 hrs by CLSI protocol based Mueller-Hinton broth assay; assay type: functional; conditions: Escherichia coli, read-out: MIC
[9] = test system: Stenotrophomonas maltophilia; assay: Antibacterial activity against Stenotrophomonas maltophilia assessed as bacterial growth inhibition incubated for 18 hrs by CLSI protocol based Mueller-Hinton broth assay; assay type: functional; conditions: Stenotrophomonas maltophilia, read-out: MIC
[10] = Hemolytic activity in sheep RBC assessed as hemolysis incubated for 1 hr by microplate reader method; assay type: toxicity, cell-based, Ovis aries, Erythrocyte; conditions: sheep red blood cells
[11] = Selectivity index, ratio of HC50 for hemolytic activity in sheep RBC to MIC for antibacterial activity against methicillin-resistant Staphylococcus aureus assessed as bacterial growth inhibition; assay type: toxicity; conditions: sheep red blood cells
[12] = Selectivity index, ratio of HC50 for hemolytic activity in sheep RBC to IC50 for antibacterial activity against Enterococcus faecalis assessed as bacterial growth inhibition; assay type: toxicity; conditions: sheep red blood cells
[13] = Selectivity index, ratio of HC50 for hemolytic activity in sheep RBC to IC50 for antibacterial activity against Escherichia coli assessed as bacterial growth inhibition; assay type: toxicity; conditions: sheep red blood cells
[14] = Selectivity index, ratio of HC50 for hemolytic activity in sheep RBC to IC50 for antibacterial activity against Salmonella enterica assessed as bacterial growth inhibition; conditions: sheep red blood cells
[15] = test system: Staphylococcus aureus; assay: Antibacterial activity against methicillin-resistant Staphylococcus aureus clinical isolates assessed as bacterial growth inhibition incubated for 18 hrs by CLSI protocol based Mueller-Hinton broth assay; assay type: functional
[16] = test system: Enterococcus faecium; assay: Antibacterial activity against Enterococcus faecium clinical isolates assessed as bacterial growth inhibition incubated for 18 hrs by CLSI protocol based Mueller-Hinton broth assay; assay type: functional
[17] = test system: Escherichia coli; assay: Antibacterial activity against carbapenems-resistant Escherichia coli expressing blaNDM-5 clinical isolates assessed as bacterial growth inhibition incubated for 18 hrs by CLSI protocol based Mueller-Hinton broth assay; assay type: functional
[18] = test system: Escherichia coli; assay: Antibacterial activity against carbapenems-resistant Escherichia coli expressing blaNDM-3 clinical isolates assessed as bacterial growth inhibition incubated for 18 hrs by CLSI protocol based Mueller-Hinton broth assay; assay type: functional
[19] = test system: Escherichia coli; assay: Antibacterial activity against carbapenems-resistant Escherichia coli expressing blaNDM-9 clinical isolates assessed as bacterial growth inhibition incubated for 18 hrs by CLSI protocol based Mueller-Hinton broth assay; assay type: functional
[20] = test system: Citrobacter freundii; assay: Antibacterial activity against carbapenems-resistant Citrobacter freundii expressing blaNDM-1 clinical isolates assessed as bacterial growth inhibition incubated for 18 hrs by CLSI protocol based Mueller-Hinton broth assay; assay type: functional
[21] = test system: Pseudomonas aeruginosa; assay: Antibacterial activity against carbapenems-resistant Pseudomonas aeruginosa expressing blaVIM-1 clinical isolates assessed as bacterial growth inhibition incubated for 18 hrs by CLSI protocol based Mueller-Hinton broth assay; assay type: functional
[22] = test system: Staphylococcus aureus; assay: Bactericidal activity against methicillin-resistant Staphylococcus aureus assessed as decrease in viable count measured up to 4 hrs by time-killing kinetics assay; assay type: functional, organism-based; conditions: dose 2-4 µg/ml
[23] = test system: Staphylococcus aureus; assay: Bactericidal activity against methicillin-resistant Staphylococcus aureus assessed as decrease in viable count at 2 to 4 ug/ml by time-killing kinetics assay; assay type: functional, organism-based; conditions: dose 2-4 µg/ml, time <= 4.0 hrs, TDE = time-dependent effect
[24] = test system: Staphylococcus aureus; assay: Antibacterial activity against methicillin-resistant Staphylococcus aureus assessed as resistance development at 0.5 to 1 ug/ml measured after 20 days by resistance development assay; assay type: functional, organism-based; conditions: dose 0.5-1 µg/ml, time 20.0 day
[25] = test system: Staphylococcus aureus; assay: Induction of cytoplasmic membrane depolarization in methicillin-resistant Staphylococcus aureus assessed as enhancement of fluorescence intensity measured at 1 min interval for 16 mins by DiSC3(5) dye based fluorescence method; assay type: functional, organism-based; conditions: dose 0.5-16 µg/ml
[26] = test system: Staphylococcus aureus; assay: Induction of cytoplasmic membrane depolarization in methicillin-resistant Staphylococcus aureus assessed as fold increase in fluorescence intensity at 16 ug/ml measured at 1 min interval for 16 mins by DiSC3(5) dye based fluorescence method; assay type: functional; conditions: dose 16 µg/ml
[27] = test system: Staphylococcus aureus; assay: Antibacterial activity against methicillin-resistant Staphylococcus aureus assessed as bacterial growth inhibition in presence of phosphatidylglycerol incubated for 18 hrs by checkerboard microdilution assay; assay type: functional, organism-based
[28] = test system: Staphylococcus aureus; assay: Antibacterial activity against methicillin-resistant Staphylococcus aureus assessed as bacterial growth inhibition in presence of phosphoethanolamine incubated for 18 hrs by checkerboard microdilution assay; assay type: functional, organism-based
[29] = test system: Staphylococcus aureus; assay: Antibacterial activity against methicillin-resistant Staphylococcus aureus assessed as bacterial growth inhibition in presence of phosphatidylcholine incubated for 18 hrs by checkerboard microdilution assay; assay type: functional, organism-based
[30] = test system: Staphylococcus aureus; assay: Induction of intracellular ROS accumulation in methicillin-resistant Staphylococcus aureus assessed as increase in fluorescence intensity incubated for 30 mins by DCFH-DA dye based fluorescence assay; assay type: functional, organism-based; conditions: dose 0.125-8 µg/ml
[31] = test system: Staphylococcus aureus; assay: Induction of intracellular ROS accumulation in methicillin-resistant Staphylococcus aureus assessed as fold increase in fluorescence intensity at 0.5 ug/ml incubated for 30 mins by DCFH-DA dye based fluorescence assay; assay type: functional; conditions: dose 0.5 µg/ml
[32] = test system: Staphylococcus aureus; assay: Antibacterial activity against methicillin-resistant Staphylococcus aureus assessed as fold decrease in MIC in presence of NAC incubated for 18 hrs by CLSI protocol based Mueller-Hinton broth assay; assay type: functional
[33] = test system: Staphylococcus aureus; assay: Induction of morphological changes in methicillin-resistant Staphylococcus aureus assessed as appearance of wrinkled cell surface at 8 ug/ml incubated for 4 hrs by SEM analysis; assay type: functional, organism-based; conditions: dose 8.0 µg/ml
[34] = test system: Staphylococcus aureus; assay: Induction of morphological changes in methicillin-resistant Staphylococcus aureus assessed as appearance of shrunken cell surface at 8 ug/ml incubated for 4 hrs by SEM analysis; assay type: functional, organism-based; conditions: dose 8.0 µg/ml
[35] = Cytotoxicity against HUVEC cells assessed as reduction in cell viability incubated for 72 hrs by CCK8 assay; assay type: toxicity, cell-based; conditions: human
[36] = Toxicity in HUVEC cells assessed as morphological changes at 16 ug/ml incubated for 24 hrs by optical microscopy imaging analysis; assay type: cell-based; conditions: human, dose 16 µg/ml
[37] = Toxicity in HUVEC cells assessed as live cells by measuring increase in green fluorescence at 16 ug/ml incubated for 24 hrs by calcein AM and propidium iodide staining based fuorescence microscopic analysis; assay type: cell-based; conditions: human, dose 16 µg/ml
[38] = Toxicity in SPF Kunming mouse assessed as lethal dose administered for 3 days; conditions: in vivo, 72 h, time 3 day
[39] = Metabolic stability in SPF Kunming mouse assessed as half life at 5 mg/kg/day, iv; assay type: ADME, organism-based; conditions: in vivo
[40] = test system: Staphylococcus aureus; assay: In vivo antibacterial activity against methicillin-resistant Staphylococcus aureus infected in SPF Kunming mouse assessed as reduction in amount of bacteria measure per abscess at 5 mg/kg ,ip administered every 12 hrs for 3 consecutive days; assay type: functional; conditions: time 3 day
[41] = test system: Staphylococcus aureus; assay: In vivo antibacterial activity against methicillin-resistant Staphylococcus aureus infected in SPF Kunming mouse assessed as reduction in amount of bacteria measured per abscess at 10 mg/kg ,ip administered every 12 hrs for 3 consecutive days; assay type: functional; conditions: time 3 day
[42] = test system: Staphylococcus aureus; assay: In vivo antibacterial activity against methicillin-resistant Staphylococcus aureus infected in SPF Kunming mouse assessed as reduction in neutrophils in skin tissue at 10 mg/kg ,ip administered every 12 hrs for 3 consecutive days; assay type: functional, organism-based; conditions: time 3.0 day
[43] = test system: Staphylococcus aureus; assay: Bactericidal activity against methicillin-resistant Staphylococcus aureus assessed as reduction in turbidity at 2 to 4 ug/ml measured after 6 hrs; assay type: functional, organism-based; conditions: dose 2-4 µg/ml
[44] = Hemolytic activity in human erythrocytes assessed as hemolysis; assay type: toxicity, cell-based, Erythrocyte
[45] = Selectivity index, ratio of HC50 for hemolytic activity in human erythrocytes to MIC for antibacterial activity against methicillin-resistant Staphylococcus aureus assessed as bacterial growth inhibition; assay type: toxicity, cell-based
[46] = Hemolytic activity in mammalian RBC assessed as hemolysis; assay type: toxicity, cell-based, Erythrocyte; conditions: mammalia, mammalian red blood cells
[47] = Selectivity index, ratio of HC50 for hemolytic activity in mammalian RBC to MIC for antibacterial activity against methicillin-resistant Staphylococcus aureus assessed as bacterial growth inhibition; assay type: toxicity; conditions: mammalian red blood cells
[48] = test system: Staphylococcus aureus; assay: Antibacterial activity against methicillin-resistant Staphylococcus aureus assessed as bacterial growth inhibition incubated for 24 hrs by Luria-Bertani broth based method; assay type: functional
[49] = Hemolytic activity in human RBC assessed as hemolysis incubated for 1 hr; assay type: toxicity, cell-based, Erythrocyte; conditions: human red blood cells
[50] = Selectivity index, ratio of HC50 for hemolytic activity in human RBC to MIC for antibacterial activity against methicillin-resistant Staphylococcus aureus assessed as bacterial growth inhibition; assay type: toxicity; conditions: human red blood cells

## CCCCCCN(CCCCCCCCCCCCN(CCCCCC)C(=O)[C@@H](N)CCCCN)C(=O)[C@@H](N)CCCCN.Cl.Cl.Cl.Cl
[1]
  MIC: 2 µg/mL
[2]
  MIC: 1 µg/mL
[3]
  MIC: 1 µg/mL
[4]
  MIC: 1 µg/mL

## CCCCCCN(CCCOc1ccccc1-c1ccccc1OCCCN(CCCCCC)C(=O)[C@@H](N)CCCCN)C(=O)[C@@H](N)CCCCN.Cl.Cl.Cl.Cl
[5]
  hemolysis at 1 h, 320 ug/ml: < 1%
[6]
  MIC: 0.5 µg/mL
[7]
  MIC: 0.5 µg/mL
[8]
  MIC: 2 µg/mL
[9]
  MIC: 2 µg/mL
[10]
  HC50 at 1 h: > 1000 µg/mL
[11]
  selectivity ratio: > 2000
[12]
  selectivity ratio: > 2000
[13]
  selectivity ratio: > 500
[14]
  selectivity ratio: > 500
[15]
  MIC50: 1 µg/mL
  MIC90: 2 µg/mL
[16]
  MIC50: 1 µg/mL
  MIC90: 2 µg/mL
[17]
  MIC: 2 µg/mL
[18]
  MIC: 2 µg/mL
[19]
  MIC: 2 µg/mL
[20]
  MIC: 2 µg/mL
[21]
  MIC: 2 µg/mL
[22]
  Activity: Dose-Dependent Effect
[23]
  Activity: Tde
[24]
  Activity: Active
[25]
  Activity: Active
[26]
  fold change (FC): 10
[27]
  inhibition: Active
[28]
  inhibition: inactive
[29]
  inhibition: inactive
[30]
  Activity: Dose-Dependent Effect
[31]
  fold change (FC): 3.4
[32]
  fold change (FC): 16
[33]
  Activity: Active
[34]
  Activity: Active
[35]
  CC50 at 72 h: 24.2 µg/mL
[36]
  Activity: Non-Toxic
[37]
  Activity: Non-Toxic
[38]
  LD50: > 200 mg/kg/day
[39]
  half-life: 4.21 h
[40]
  Activity: 758577.6 CFU
[41]
  Activity: 46773.51 CFU
[42]
  Activity: Active
[43]
  Activity: Active

## CCCCCCN(Cc1ccc(-c2ccc(CN(CCCCCC)C(=O)[C@@H](N)CCCCN)cc2)cc1)C(=O)[C@@H](N)CCCCN.O=C(O)C(F)(F)F.O=C(O)C(F)(F)F.O=C(O)C(F)(F)F.O=C(O)C(F)(F)F
[6]
  MIC: 2 µg/mL
[7]
  MIC: 2 µg/mL
[8]; 18 h
  MIC: 4 µg/mL
[9]
  MIC: 4 µg/mL
[10]
  HC50 at 1 h: 276 µg/mL
[11]
  selectivity ratio: 138
[35]
  CC50 at 72 h: 14.2 µg/mL
[1]
  MIC: 3.1 µg/mL
[44]
  HC50: 230 µg/mL
[45]
  selectivity ratio: 74.2

## CCCCCCCC[N+](C)(C)CCCCOc1ccc(OCCCC[N+](C)(C)CCCCCCCC)cc1.[Br-].[Br-]
[1]
  MIC: 0.25 µg/mL
[46]
  HC50: 1210 µg/mL
[47]
  selectivity ratio: 4840

## CCCCCCCC[N+](C)(C)CC(=O)NCCCCCCNC(=O)C[N+](C)(C)CCCCCCCC.[Br-].[Br-]
[48]
  MIC: 1.9 µg/mL
[49]
  HC50 at 1 h: 780 µg/mL
[50]
  selectivity ratio: 410
